Measurements reported in US20050153870A1, “Medicinal composition for diagnosis, prevention, or therapy of multiple risk factor syndrome” (priority 2002, published 2005).

Legend:
[1] = system: hypercholesterolemia patients; test: Clinical test I; assay type: in vivo, human; conditions: for Fasting blood sugar (FBS) level: 5 patients with high blood sugar
From the text: The participants consisted of 9 Caucasian males and 7 Caucasian females. They participated in Clinical test I on a voluntary basis after they signed informed consent for clinical test participation, which was proposed by a medical institution based on the Helsinki declaration.
Their ages were 55 years old in average and ranging from 40 to 82 years old. Their average body weigh was 70.2±13.57 kg (standard deviation).
All participants took dietary therapy for treating hypercholesterolemia. Since various medicaments were administered, the period of 8 weeks, prior to Clinical test I, was provided to stop taking all pills, thereby washing out effects of medicaments. During the period of the Clinical test I, it was not allowed to take any other medicament together with a test medicament. Patients with type II diabetes were excluded from the participants; however, 5 patients with a high blood sugar level were included in the participants. Since they were not diagnosed as diabetes, they were allowed to participate in the test. Of 16 participants, 10 patients had hypertension and 4 patients had borderline hypertension defined by WHO. Only 2 patients had normal blood pressure.

DOCA hypertension rat = test: Periarteritis nodosa; assay type: in vivo; conditions: 50 mg/kg perorally, DOCA/saline administered rat having one of the kidneys excised out
Procedure: Rats having a cardiovascular disease due to hypertension, often develop periarteritis nodosa, which is typical blood-vessel inflammation caused in thin and small artery such as mesenteric artery. […] These are preventive effects. […] To explain more specifically, mineral corticoid is administered to rats having one of the kidneys excised out and raised for a month by giving saline as drinking water. After confirming onset of periarteritis nodosa, administration of mineral corticoid and saline is stopped and the rats are brought back under normal feeding conditions. As a result, the blood pressure of the rats gradually decreases near a normal value and periarteritis nodosa heals and disappears.

quail = test: Arteriosclerosis suppressing effect, quail on cholesterol feed; assay type: in vivo; conditions: poultry feed containing 2% of cholesterol, 9 months, 0.0125 to 0.2% added to feed
From the text: As to prevention/therapy of arteriosclerosis, a big difference is observed in effect between medicaments conceivably effective in improving arteriosclerosis, such as fibrate series medicament, thiazolidine series medicament, probucol, and statin series medicament and a compound of the present invention.

[2] = Borderline hypertensive group, 4 patients, 10th week, Placebo period after 8 weeks of medication
[3] = Borderline hypertensive group, 4 patients, 12th week, Placebo period after 8 weeks of medication
[4] = Hypertension group, 10 patients, 10th week, Placebo period after 8 weeks of medication
[5] = Hypertension group, 10 patients, 12th week, Placebo period after 8 weeks of medication

`COc1c(Cl)c(C)c(C=O)c(O)c1C/C=C(C)/C=C/[C@@]1(C)[C@H](C)CCC(=O)[C@@H]1C` [4-O-methylascochlorin] was tested, and the normal blood pressure ([1]; 2 patients of normal blood pressure) was “does not affect normal blood pressure”, the blood sugar levels ([1]; 5 cases exhibiting high blood sugar) was “brought back to normal levels” and the “Fasting blood sugar (FBS) level” value ([1]; 1st week, 0.5 mg/kg, before medication 132.4 ± 16.0) was 100.0 ± 11.0 mg/dL. For the same molecule, the “Fasting blood sugar (FBS) level” value ([1]; 2nd week, 1.0 mg/kg, before medication 132.4 ± 16.0) was 102.0 ± 4.0 mg/dL, the “Fasting blood sugar (FBS) level” value ([1]; 3rd week, 2.0 mg/kg, before medication 132.4 ± 16.0) was 103.6 ± 12.1 mg/dL and the “Fasting blood sugar (FBS) level” value ([1]; 4th week, 4.0 mg/kg, before medication 132.4 ± 16.0) was 103.2 ± 11.7 mg/dL. The “Fasting blood sugar (FBS) level” value ([1]; 6th week, 8.0 mg/kg, before medication 132.4 ± 16.0) was 98.0 ± 4.6 mg/dL, the “Fasting blood sugar (FBS) level” value ([1]; 8th week, 16.0 mg/kg, before medication 132.4 ± 16.0) was 93.3 ± 6.1 mg/dL and the “Fasting blood sugar (FBS) level” value ([1]; 10th week, Placebo period after 8 weeks of medication) was 93.5 ± 6.4 mg/dL. For the same molecule, the “Fasting blood sugar (FBS) level” value ([1]; 12th week, Placebo period after 8 weeks of medication) was 100.5 ± 11.6 mg/dL, the Blood sugar level ([1]; 5 patients, 6th week, 8 mg/kg) was “completely returns to a normal level” and the Total serum cholesterol ([1]; 6th week, 16 folds the amount of 0.5 mg/kg) was “decreased to the upper limit of the normal range”. For the same molecule, the “decrease of body weight compared to before medication” value ([1]; 8 weeks after the initiation of medication, P<0.001) was 0.9 kg, the “blood pressure of the systolic period and the diastolic period” value ([1]; 10 hypertensive patients, 8th week) was “decreased both pressure values to normal levels” and the “lowering of serum total cholesterol by medication” value ([1]; 16 hypercholesterolemia patients) was at least 30%. For the same molecule, the Total serum cholesterol ([1]; 16 hypercholesterolemia patients, 1st week, 0.5 mg/kg, before medication 342.0 ± 61.0) was 272.6 ± 62.7 mg/dL, the Total serum cholesterol ([1]; 16 hypercholesterolemia patients, 2nd week, 1.0 mg/kg, before medication 342.0 ± 61.0) was 266.5 ± 66.7 mg/dL and the Total serum cholesterol ([1]; 16 hypercholesterolemia patients, 3rd week, 2.0 mg/kg, before medication 342.0 ± 61.0) was 268.7 ± 66.0 mg/dL. The Total serum cholesterol ([1]; 16 hypercholesterolemia patients, 4th week, 4.0 mg/kg, before medication 342.0 ± 61.0) was 254.2 ± 65.7 mg/dL, the Total serum cholesterol ([1]; 16 hypercholesterolemia patients, 6th week, 8.0 mg/kg, before medication 342.0 ± 61.0) was 217.4 ± 58.8 mg/dL and the Total serum cholesterol ([1]; 16 hypercholesterolemia patients, 8th week, 16.0 mg/kg, before medication 342.0 ± 61.0) was 229.5 ± 61.9 mg/dL. For the same molecule, the Total serum cholesterol ([1]; 16 hypercholesterolemia patients, 10th week, Placebo period after 8 weeks of medication) was 255.9 ± 57.6 mg/dL, the Total serum cholesterol ([1]; 16 hypercholesterolemia patients, 12th week, Placebo period after 8 weeks of medication) was 264.0 ± 57.5 mg/dL and the “abnormality in the serum biological test, hematocyte test, and urine test” value ([1]; 16 patients, 12 weeks) was “No abnormality ascribed to medication”. For the same molecule, the side effect ([1]; 16 patients, 12 weeks, 0.5 to 16.0 mg/kg, not so severe, medication continued) was “one case with light eruption and one case with dizziness”, the Diastolic pressure ([1]; Borderline hypertensive group, 4 patients, 1st week, 0.5 mg/kg, before medication 87.1 ± 2.7) was 82.1 ± 3.9 mmHg and the Systolic pressure ([1]; Borderline hypertensive group, 4 patients, 1st week, 0.5 mg/kg, before medication 149.3 ± 7.9) was 133.6 ± 9.0 mmHg. It also gave a Diastolic pressure ([1]; Borderline hypertensive group, 4 patients, 2nd week, 1.0 mg/kg, before medication 87.1 ± 2.7) of 81.4 ± 4.8 mmHg, a Systolic pressure ([1]; Borderline hypertensive group, 4 patients, 2nd week, 1.0 mg/kg, before medication 149.3 ± 7.9) of 134.3 ± 6.7 mmHg and a Diastolic pressure ([1]; Borderline hypertensive group, 4 patients, 3rd week, 2.0 mg/kg, before medication 87.1 ± 2.7) of 81.4 ± 2.4 mmHg. The Systolic pressure ([1]; Borderline hypertensive group, 4 patients, 3rd week, 2.0 mg/kg, before medication 149.3 ± 7.9) was 134.3 ± 9.3 mmHg, the Diastolic pressure ([1]; Borderline hypertensive group, 4 patients, 4th week, 4.0 mg/kg, before medication 87.1 ± 2.7) was 80.7 ± 3.5 mmHg and the Systolic pressure ([1]; Borderline hypertensive group, 4 patients, 4th week, 4.0 mg/kg, before medication 149.3 ± 7.9) was 130.7 ± 8.9 mmHg. It also gave a Diastolic pressure ([1]; Borderline hypertensive group, 4 patients, 6th week, 8.0 mg/kg, before medication 87.1 ± 2.7) of 78.6 ± 3.8 mmHg, a Systolic pressure ([1]; Borderline hypertensive group, 4 patients, 6th week, 8.0 mg/kg, before medication 149.3 ± 7.9) of 130.7 ± 8.9 mmHg and a Diastolic pressure ([1]; Borderline hypertensive group, 4 patients, 8th week, 16.0 mg/kg, before medication 87.1 ± 2.7) of 77.9 ± 3.9 mmHg. The Systolic pressure ([1]; Borderline hypertensive group, 4 patients, 8th week, 16.0 mg/kg, before medication 149.3 ± 7.9) was 130.0 ± 8.2 mmHg, the Diastolic pressure [1, 2] was 78.6 ± 4.8 mmHg and the Systolic pressure [1, 2] was 130.7 ± 9.3 mmHg. It also gave a Diastolic pressure [1, 3] of 78.6 ± 4.8 mmHg, a Systolic pressure [1, 3] of 132.1 ± 10.4 mmHg and a Diastolic pressure ([1]; Hypertension group, 10 patients, 1st week, 0.5 mg/kg, before medication 91.0 ± 7.7) of 83.5 ± 4.7 mmHg. It also gave a Systolic pressure ([1]; Hypertension group, 10 patients, 1st week, 0.5 mg/kg, before medication 161.5 ± 21.1) of 143.5 ± 28.5 mmHg, a Diastolic pressure ([1]; Hypertension group, 10 patients, 2nd week, 1.0 mg/kg, before medication 91.0 ± 7.7) of 83.0 ± 5.4 mmHg and a Systolic pressure ([1]; Hypertension group, 10 patients, 2nd week, 1.0 mg/kg, before medication 161.5 ± 21.1) of 147.5 ± 28.5 mmHg. It also gave a Diastolic pressure ([1]; Hypertension group, 10 patients, 3rd week, 2.0 mg/kg, before medication 91.0 ± 7.7) of 84.5 ± 6.0 mmHg, a Systolic pressure ([1]; Hypertension group, 10 patients, 3rd week, 2.0 mg/kg, before medication 161.5 ± 21.1) of 147.5 ± 26.1 mmHg and a Diastolic pressure ([1]; Hypertension group, 10 patients, 4th week, 4.0 mg/kg, before medication 91.0 ± 7.7) of 85.5 ± 9.44 mmHg. For the same molecule, the Systolic pressure ([1]; Hypertension group, 10 patients, 4th week, 4.0 mg/kg, before medication 161.5 ± 21.1) was 148.5 ± 26.8 mmHg, the Diastolic pressure ([1]; Hypertension group, 10 patients, 6th week, 8.0 mg/kg, before medication 91.0 ± 7.7) was 83.5 ± 9.44 mmHg and the Systolic pressure ([1]; Hypertension group, 10 patients, 6th week, 8.0 mg/kg, before medication 161.5 ± 21.1) was 144.5 ± 29.8 mmHg. The Diastolic pressure ([1]; Hypertension group, 10 patients, 8th week, 16.0 mg/kg, before medication 91.0 ± 7.7) was 78.1 ± 3.7 mmHg, the Systolic pressure ([1]; Hypertension group, 10 patients, 8th week, 16.0 mg/kg, before medication 161.5 ± 21.1) was 130.0 ± 7.6 mmHg and the Diastolic pressure [1, 4] was 83.5 ± 8.8 mmHg. The Systolic pressure [1, 4] was 145.5 ± 26.3 mmHg, the Diastolic pressure [1, 5] was 84.0 ± 9.7 mmHg and the Systolic pressure [1, 5] was 151.5 ± 32.4 mmHg. The “blood pressure of the hypertension group and borderline hypertension group” value ([1]; medication for 8 weeks) was “dropped to the upper limit of a normal range”, the “drop of total serum cholesterol, average” value ([1]; one week after 0.5 mg/kg perorally) was 70 mg/dL and the Serum neutral fat ([1]; ratio of serum neutral fat/serum total cholesterol 1.2 or less (hyperlipemia type IIa)) was “significantly decreased”. For the same molecule, the Serum neutral fat ([1]; ratio of serum neutral fat/serum total cholesterol 1.2 or more (hyperlipemia type IIb and type IV)) was “a significant decrease of serum neutral fat was not observed”, the Periarteritis nodosa (DOCA hypertension rat) was “significantly suppressed. When ascofuranone is perorally administered to SHR of a” and the “atherosclerosis of the aorta, hypercholesterolemia, deposition of cholesterol onto the heart and the aorta” value (quail) was “the aforementioned changes are suppressed”.
